Source: patent publication US20090227587A1, “Pyrimidines as inhibitors of phosphoinositide-3-kinases (PI3K)” (Warner-Lambert Company LLC, priority 2003, published 2009)

Molecular target: T1, p101/p110γ protein (PI3Kγ) (Homo sapiens, UniProt P48736)
T1 construct: HA; made in house; host or cells: Spodoptera frugiperda (Sf9) cells, baculovirus co-infection
Assay: PI3Kγ in vitro kinase assay
Assay type: biochemical
Details: purified recombinant p101/p110γ with G protein β1/γ2 subunits, 20 μM ATP, PIP2 lipid micelles
Method: Spodtera frugiperda cells, grown in ESF921 media, were co-infected with baculovirus expressing a glu-tagged p101 and baculovirus expressing an HA-tagged p110γ, at a 3:1 ratio of p101 baculovirus to p110γ baculovirus. Sf9 cells were grown to 1×10^7 total cells/mL in 10 L bioreactors and harvested 48-72 hours post infection. Samples of infected cells were then tested for expression of p101/p110γ PI3 kinase by immunoprecipitation and Western Blot analysis methods (see below).
To purify PI3Kγ, 4 volumes of room temperature hypotonic lysis buffer (1 mM MgCl2, 1 mM DTT, 5 mM EGTA, 1 mM Pefabloc, 0.5 μM aprotinin, 5 μM leupeptin, 2 μM pepstatin, 5 μM E64, pH 8) per gram of cell paste, was poured onto frozen cell pellets with stirring, then lysed in a nitrogen “bomb” at 400 psi (599HC T316, Parr Instrument Co, Moline, Ill.). NaCl was added to 150 mM, and sodium cholate was added to 1% and mixed for another 45 minutes. The lysates were clarified by centrifugation for 25 minutes at 14,000 rpm. The lysates were then loaded over anti-glu-linked Protein-G Sepaharose beads (Covance Research Products, Richmond, Calif.) using 20 mL resin/50 g cell paste. The column was washed with 15 volumes of wash buffer (1 mM DTT, 0.2 mM EGTA, 1 mM Pefabloc, 0.5 μM aprotinin, 5 μM leupeptin, 2 μM pepstatin, 5 μM E64, 150 mM NaCl, 1% sodium cholate, pH 8). PI3Kγ was eluted with 6 column volumes of wash buffer that contain 100 μg/mL of a peptide that competes for binding of the glu tag. The column fractions with the eluted protein (determined by taking OD280 readings) were collected and dialyzed in 0.2 mM EGTA, 1 mM DTT, 1 mM Pefabloc, 5 μM leupeptin, 0.5% sodium cholate, 150 mM NaCl, and 50% glycerol, pH 8. The fractions were stored at −80° C. until further use.
Spodtera frugiperda cells were coinfected with baculovirus expressing a glu-tagged G protein β1 and baculovirus expressing a G protein […], at a 1:1 ratio of glu-tagged G protein […] baculovirus to G protein β2 baculovirus. Sf9 cells are grown in 10 L bioreactors and harvested 48-72 hours post infection. Samples of infected cells were tested for G protein β1/β2 expression by Western Blot analysis, as described below. Cell lysates were homogenized and loaded onto a column of glu-tagged beads as in Biological Example 1 and competed off the column with a glu peptide and processed as described in Biological Example 1.
The inhibitory properties of the compounds in Table 1 were assayed in an in vitro PI3K assay. In a 96-well polypropylene plate, each well was spotted with 2 μL of 50 times the desired final concentration of compound in DMSO. Purified recombinant p101/p110γ protein (0.03 μg; ˜2.7 nM) and G protein β1/γ2 subunits (0.09 μg; ˜57.7 nM) for each reaction was combined in the assay buffer (30 mM HEPES, 100 mM NaCl, 1 mM EGTA, and 1 mM DTT). ATP and [γ-^32P-ATP] (0.09 μCi) were added to this mixture so that the final ATP concentration in the reaction was 20 μM. Lipid micelles were formed by sonicating phosphatidylinositol-4,5-diphosphate (PIP2), phosphatidylethanolamine (PE), and Na-cholate in the assay buffer for 10 minutes, adding MgCl2 and incubating on ice for 20 minutes, for final concentrations of 25 μM PIP2, 300 μM PE, 0.02% Na-cholate, and 10 mM MgCl2 in the reaction. The reactions were started by adding equal volumes lipid and enzyme mixture in a total volume of 50 μL, allowed to run for 20 minutes at room temperature, and stopped with 100 μL 75 mM H3PO4. The lipid product was transferred to a glass fiber filter plate and washed with 75 mM H3PO4 several times. The presence of radioactive lipid product (PIP3) was measured by adding Wallac Optiphase mix to each well and counting in a Wallac 1450 Trilux plate reader (PerkinElmer Life Sciences Inc., Boston, Mass. 02118). The IC50 for each compound tested is reported in μM in the Tables above.

T1 sequence (P48736 whole entry, species assumed): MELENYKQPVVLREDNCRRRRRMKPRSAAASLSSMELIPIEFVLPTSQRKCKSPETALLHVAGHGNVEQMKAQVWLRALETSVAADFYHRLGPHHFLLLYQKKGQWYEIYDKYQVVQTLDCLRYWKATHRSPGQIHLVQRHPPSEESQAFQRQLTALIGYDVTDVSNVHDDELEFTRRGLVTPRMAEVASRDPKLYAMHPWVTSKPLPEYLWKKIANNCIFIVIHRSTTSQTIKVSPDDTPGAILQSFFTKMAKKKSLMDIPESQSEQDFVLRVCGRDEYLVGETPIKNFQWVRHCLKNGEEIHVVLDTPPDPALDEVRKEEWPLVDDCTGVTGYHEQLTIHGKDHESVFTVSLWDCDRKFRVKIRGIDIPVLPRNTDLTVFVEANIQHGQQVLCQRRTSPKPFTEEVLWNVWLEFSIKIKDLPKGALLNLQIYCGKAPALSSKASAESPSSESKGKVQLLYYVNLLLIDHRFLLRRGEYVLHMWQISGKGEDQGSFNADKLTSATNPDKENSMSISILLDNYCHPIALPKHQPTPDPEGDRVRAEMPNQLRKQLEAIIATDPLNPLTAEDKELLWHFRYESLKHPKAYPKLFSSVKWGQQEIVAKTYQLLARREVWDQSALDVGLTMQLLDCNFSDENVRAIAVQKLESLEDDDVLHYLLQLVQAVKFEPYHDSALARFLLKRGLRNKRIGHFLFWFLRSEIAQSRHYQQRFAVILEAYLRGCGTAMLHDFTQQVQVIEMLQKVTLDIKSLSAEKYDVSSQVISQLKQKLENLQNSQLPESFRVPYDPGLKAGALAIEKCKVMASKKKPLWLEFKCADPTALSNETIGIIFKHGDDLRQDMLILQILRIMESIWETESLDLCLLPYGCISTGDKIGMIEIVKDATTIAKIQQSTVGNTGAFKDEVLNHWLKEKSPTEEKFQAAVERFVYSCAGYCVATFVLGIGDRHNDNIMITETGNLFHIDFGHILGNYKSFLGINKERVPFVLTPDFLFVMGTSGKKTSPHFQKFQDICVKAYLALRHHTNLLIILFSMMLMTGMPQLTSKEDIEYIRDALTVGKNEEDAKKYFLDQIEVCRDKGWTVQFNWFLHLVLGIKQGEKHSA
T1 sequence (Q8WYR1 whole entry partner, species assumed): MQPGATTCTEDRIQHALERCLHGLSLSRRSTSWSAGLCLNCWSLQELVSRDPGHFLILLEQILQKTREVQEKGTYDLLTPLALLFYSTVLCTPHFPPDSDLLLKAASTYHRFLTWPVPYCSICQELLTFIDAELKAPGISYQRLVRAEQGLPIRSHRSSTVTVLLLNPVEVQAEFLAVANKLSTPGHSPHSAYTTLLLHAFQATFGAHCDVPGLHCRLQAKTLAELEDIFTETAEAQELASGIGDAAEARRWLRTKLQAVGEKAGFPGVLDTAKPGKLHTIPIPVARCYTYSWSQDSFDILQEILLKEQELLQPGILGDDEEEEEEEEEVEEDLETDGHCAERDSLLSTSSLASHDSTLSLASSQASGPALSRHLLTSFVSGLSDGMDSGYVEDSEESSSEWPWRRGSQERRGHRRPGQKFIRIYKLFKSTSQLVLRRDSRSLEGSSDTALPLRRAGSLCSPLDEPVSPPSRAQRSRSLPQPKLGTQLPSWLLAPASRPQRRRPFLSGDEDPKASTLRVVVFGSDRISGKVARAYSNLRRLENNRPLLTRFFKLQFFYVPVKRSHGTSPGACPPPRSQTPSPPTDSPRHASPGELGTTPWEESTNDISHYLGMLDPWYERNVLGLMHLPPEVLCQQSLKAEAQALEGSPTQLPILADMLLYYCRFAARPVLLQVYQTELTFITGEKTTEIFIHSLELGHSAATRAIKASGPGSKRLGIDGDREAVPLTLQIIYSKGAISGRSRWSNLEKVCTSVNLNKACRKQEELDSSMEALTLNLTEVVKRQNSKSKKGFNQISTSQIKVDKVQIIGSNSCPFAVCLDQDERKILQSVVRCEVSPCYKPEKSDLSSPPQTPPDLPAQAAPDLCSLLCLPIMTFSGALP

| Compound | IC50 [nM] |
| --- | --- |
| CC1(COc2nc(N3CCOCC3)ncc2C(=O)Nc2nn[nH]n2)CC1 [Example 15, 4-(1-Methyl-cyclopropylmethoxy)-2-morpholin-4-yl-pyrimidine-5-carboxylic acid (2H-tetrazol-5-yl)-amide] | 1690 |
| O=C(Nc1nn[nH]n1)c1cnc(N2CCOCC2)nc1OC1CCCCC1 [Example 4, 4-Cyclohexyloxy-2-morpholin-4-yl-pyrimidine-5-carboxylic acid (2H-tetrazol-5-yl)-amide] | 1740 |
| O=C(Nc1nn[nH]n1)c1cnc(N2CCOCC2)nc1OCC1CCCCC1 [Example 7, 4-Cyclohexylmethoxy-2-morpholin-4-yl-pyrimidine-5-carboxylic acid (2H-tetrazol-5-yl)-amide] | 1840 |
| CC(C)(C)COc1nc(N2CCOCC2)ncc1C(=O)Nc1nn[nH]n1 [Example 13, 4-(2,2-Dimethyl-propoxy)-2-morpholin-4-yl-pyrimidine-5-carboxylic acid (2H-tetrazol-5-yl)-amide] | 2060 |
| CC(C)Oc1nc(N2CCOCC2)ncc1C(=O)Nc1nn[nH]n1 [Example 3, 4-Isopropoxy-2-morpholin-4-yl-pyrimidine-5-carboxylic acid (2H-tetrazol-5-yl)-amide] | 87500 |
| O=C(Nc1nn[nH]n1)c1cnc(N2CCOCC2)nc1OCCC1CCCCC1 [Example 6, 4-(2-Cyclohexyl-ethoxy)-2-morpholin-4-yl-pyrimidine-5-carboxylic acid (2H-tetrazol-5-yl)-amide] | 10100 |
| O=C(Nc1nnn[nH]1)c1cnc(N2CCOCC2)nc1NCc1ccccc1 [Example 20, 4-Benzylamino-2-morpholin-4-ylpyrimidine-5-carboxylic acid (1H-tetrazol-5-yl)-amide] | 39100 |
| O=C(Nc1nnn[nH]1)c1cnc(N2CCOCC2)nc1NC1CCCCC1 [Example 21, 4-Cyclohexylamino-2-morpholin-4-yl-pyrimidine-5-carboxylic acid (1H-tetrazol-5-yl)-amide] | 28600 |
| O=C(Nc1nnn[nH]1)c1cnc(N2CCOCC2)nc1NC1CCCC1 [Example 19, 4-Cyclopentylamino-2-morpholin-4-yl-pyrimidine-5-carboxylic acid (1H-tetrazol-5-yl)-amide] | 32700 |
| O=C(Nc1nn[nH]n1)c1cnc(N2CCOCC2)nc1OC1CCOCC1 [Example 10, 2-Morpholin-4-yl-4-(tetrahydro-pyran-4-yloxy)-pyrimidine-5-carboxylic acid (2H-tetrazol-5-yl)-amide] | 10500 |
| Cc1nc(N2CCOCC2)nc(OC2CCCCCC2)c1C(=O)Nc1nn[nH]n1 [Example 22, 4-Cycloheptyloxy-6-methyl-2-morpholin-4-yl-pyrimidine-5-carboxylic acid (2H-tetrazol-5-yl)-amide] | 8440 |
| COCCOc1nc(N2CCOCC2)ncc1C(=O)Nc1nn[nH]n1 [Example 8, 4-(2-Methoxy-ethoxy)-Z-morpholin-4-yl-pyrimidine-5-carboxylic acid (2H-tetrazol-5-yl)-amide] | 2320 |

These reach a lower IC50. Values come first.

| IC50 [nM] | Compound |
| --- | --- |
| 1540 | O=C(Nc1nn[nH]n1)c1cnc(N2CCOCC2)nc1OC1CCCC1 [Example 2, 4-Cyclopentyloxy-2-morpholin-4-yl-pyrimidine-5-carboxylic acid (2H-tetrazol-5-yl)-amide] |
| 845 | O=C(Nc1nn[nH]n1)c1cnc(N2CCOCC2)nc1OC1CC2CCC1C2 (stereo not drawn) [Example 12, 4-(Bicyclo[2.2.1]hept-2-yloxy)-2-morpholin-4-yl-pyrimidine-5-carboxylic acid (2H-tetrazol-5-yl)-amide] |
| 154 | O=C(Nc1nn[nH]n1)c1cnc(N2CCOCC2)nc1Oc1ccc(C2CCCCC2)cc1 [Example 18, 4-(4-Cyclohexyl-phenoxy)-2-morpholin-4-yl-pyrimidine-5-carboxylic acid (2H-tetrazol-5-yl)-amide] |
| 485 | O=C(Nc1nn[nH]n1)c1cnc(N2CCOCC2)nc1OC1C2CC3CC(C2)CC1C3 (stereo not drawn) [Example 11, 4-(Adamantan-2-yloxy)-2-morpholin-4-yl-pyrimidine-5-carboxylic acid (2H-tetrazol-5-yl)-amide] |
| 1360 | CC1(C)CCCC(Oc2nc(N3CCOCC3)ncc2C(=O)Nc2nn[nH]n2)C1 (stereo not drawn) [Example 9, 4-(3,3-Dimethyl-cyclohexyloxy)-2-morpholin-4-yl-pyrimidine-5-carboxylic acid (2H-tetrazol-5-yl)-amide] |
| 502 | O=C(Nc1nn[nH]n1)c1cnc(N2CCOCC2)nc1OC1CCCCCCC1 [Example 5, 4-Cyclooctyloxy-2-morpholin-4-yl-pyrimidine-5-carboxylic acid (2H-tetrazol-5-yl)-amide] |
| 1160 | CC(C)C(C)Oc1nc(N2CCOCC2)ncc1C(=O)Nc1nn[nH]n1 (stereo not drawn) [Example 14, 4-(1,2-Dimethyl-propoxy)-2-morpholin-4-yl-pyrimidine-5-carboxylic acid (2H-tetrazol-5-yl)-amide] |
| 805 | CC(C)c1ccc(Oc2nc(N3CCOCC3)ncc2C(=O)Nc2nn[nH]n2)cc1 [Example 17, 4-(4-Isopropyl-phenoxy)-2-morpholin-4-yl-pyrimidine-5-carboxylic acid (2H-tetrazol-5-yl)-amide] |
| 210 | CC1CC(C)CC(Oc2nc(N3CCOCC3)ncc2C(=O)Nc2nn[nH]n2)C1 (stereo not drawn) [Example 16, 4-(3,5-Dimethyl-cyclohexyloxy)-2-morpholin-4-yl-pyrimidine-5-carboxylic acid (2H-tetrazol-5-yl)-amide] |
